Assays:
[1] = target: human recombinant Aurora A (Homo sapiens (Human), UniProt O14965); assay: Aurora A Kinase Biochemical Assay (ADP-Glo); settings: ratio of Aurora A IC50 to PLK4 IC50 (selectivity)
Description: (§1) Activity of human recombinant Aurora A (ThermoFisher, cat #PR5935A) was measured by quantification of adenosine diphosphate (ADP) using the ADP-Glo Kinase Assay Kit (Promega, cat #V9102). […] 5 µL of 5.0 nM Aurora A in assay buffer (50 mM HEPES, pH 7.5, 0.01% Brij-35, 0.01% BSA, 10 mM MgCl2, 1 mM EGTA, 1 mM DTT) was added to the plates. Test compounds and Aurora A were incubated for 15 minutes at room temperature (RT). […] Reactions were stopped and the remaining ATP depleted by adding 10uL of ADP-Glo reagent (Promega, cat#V912B) and incubating for 40 minutes at RT. The simultaneous conversion of the remaining ADP to ATP and measurement of the newly synthesized ATP was achieved by addition of 20 µL Kinase Detection reagent (Promega, cat #V914B), incubation for 30 min at RT, and luminescence detection using the EnVision plate reader (PerkinElmer). […] The IC50 values reported in Table 2 were determined using four parameter non-linear regression curve fit.

human recombinant PLK4 = human recombinant PLK4 (Homo sapiens (Human), UniProt O00444); assay: PLK4 Biochemical Assay (ADP-Glo); settings: 0.5 nM PLK4, 8.0 µM ATP, 4.7 µM MBP, 6 hours at RT
human recombinant PLK4, sequence (O00444 whole entry): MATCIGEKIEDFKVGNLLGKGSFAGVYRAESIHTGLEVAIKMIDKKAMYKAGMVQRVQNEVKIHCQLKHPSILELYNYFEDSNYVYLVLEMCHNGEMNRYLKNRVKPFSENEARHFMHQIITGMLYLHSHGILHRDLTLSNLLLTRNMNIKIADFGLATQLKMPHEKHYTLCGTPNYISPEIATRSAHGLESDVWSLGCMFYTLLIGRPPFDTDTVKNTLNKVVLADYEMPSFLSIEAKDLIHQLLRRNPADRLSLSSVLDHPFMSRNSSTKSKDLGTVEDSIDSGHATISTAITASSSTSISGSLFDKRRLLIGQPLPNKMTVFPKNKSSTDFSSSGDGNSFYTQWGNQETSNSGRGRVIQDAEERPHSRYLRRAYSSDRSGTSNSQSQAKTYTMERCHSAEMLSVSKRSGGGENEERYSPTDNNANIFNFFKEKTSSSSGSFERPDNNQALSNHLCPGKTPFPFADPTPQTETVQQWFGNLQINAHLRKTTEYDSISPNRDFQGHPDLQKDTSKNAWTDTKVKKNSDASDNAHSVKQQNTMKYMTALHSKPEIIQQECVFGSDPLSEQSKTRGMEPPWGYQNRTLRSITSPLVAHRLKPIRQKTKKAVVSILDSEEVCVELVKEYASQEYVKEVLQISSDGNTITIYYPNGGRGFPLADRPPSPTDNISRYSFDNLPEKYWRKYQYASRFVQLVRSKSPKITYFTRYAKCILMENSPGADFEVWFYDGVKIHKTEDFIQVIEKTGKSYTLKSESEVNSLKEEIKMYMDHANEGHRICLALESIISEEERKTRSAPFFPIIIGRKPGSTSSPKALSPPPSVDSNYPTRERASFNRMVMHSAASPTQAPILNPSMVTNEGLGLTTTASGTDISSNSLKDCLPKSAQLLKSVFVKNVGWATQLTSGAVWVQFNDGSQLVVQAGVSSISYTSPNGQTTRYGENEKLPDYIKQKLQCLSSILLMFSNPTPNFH
Description: as §1, with “recombinant PLK4” for “recombinant Aurora A”, “cat #PV6396)” for “cat #PR5935A)”, “of 1.0” for “of 5.0”, “nM PLK4 protein” for “nM Aurora A”, “and PLK4” for “and Aurora A”, “adding 10 µL” for “adding 10uL”

[2] = target: human recombinant Aurora B (Homo sapiens (Human), UniProt Q96GD4); assay: Aurora B Kinase Biochemical Assay (ADP-Glo); settings: ratio of Aurora B IC50 to PLK4 IC50 (selectivity)
human recombinant Aurora B, sequence (Q96GD4 whole entry): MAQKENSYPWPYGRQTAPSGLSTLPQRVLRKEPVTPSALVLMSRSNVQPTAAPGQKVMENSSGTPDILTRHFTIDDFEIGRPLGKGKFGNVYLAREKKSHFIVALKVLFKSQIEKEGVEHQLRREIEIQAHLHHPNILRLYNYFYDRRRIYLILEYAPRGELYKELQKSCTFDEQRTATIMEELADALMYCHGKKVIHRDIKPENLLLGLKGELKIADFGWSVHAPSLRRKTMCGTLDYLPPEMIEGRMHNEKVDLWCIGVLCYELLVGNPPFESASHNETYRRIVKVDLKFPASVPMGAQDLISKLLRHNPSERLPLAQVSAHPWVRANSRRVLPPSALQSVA
Description: as §1, with “Aurora B” for “Aurora A”, “cat #PR9210B)” for “cat #PR5935A)”, “of 20” for “of 5.0”

human recombinant Aurora A, sequence (O14965 whole entry): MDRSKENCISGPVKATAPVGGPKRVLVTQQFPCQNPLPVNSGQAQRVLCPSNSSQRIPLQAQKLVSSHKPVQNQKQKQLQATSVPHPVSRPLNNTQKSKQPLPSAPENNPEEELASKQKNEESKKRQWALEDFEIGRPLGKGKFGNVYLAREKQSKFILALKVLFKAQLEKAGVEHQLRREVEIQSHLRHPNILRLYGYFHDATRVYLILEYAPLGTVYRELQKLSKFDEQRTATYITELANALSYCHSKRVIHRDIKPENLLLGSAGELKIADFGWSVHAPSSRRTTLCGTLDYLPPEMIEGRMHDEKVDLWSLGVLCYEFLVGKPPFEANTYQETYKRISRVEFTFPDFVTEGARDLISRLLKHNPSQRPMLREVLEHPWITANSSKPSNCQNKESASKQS

| Compound | [Aurora A IC50 (nM)]/[PLK4 IC50 (nM)] [1] | IC50 (human recombinant PLK4) [nM] | [Aurora B IC50 (nM)]/[PLK4 IC50 (nM)] [2] |
| --- | --- | --- | --- |
| COc1ccc2c(c1)[C@]1(C[C@H]1c1ccc3c(Nc4nc(Cl)c(OC)c(N5CCOCC5)n4)n[nH]c3c1)C(=O)N2 [Example 49, (1R,2S)-2-(3-{[4-chloro-5-methoxy-6-(morpholin-4-yl)pyrimidin-2-yl]amino}-1H-indazol-6-yl)-5′-metboxyspiro[cydopropane-1,3′-indol]-2′(1′H)-one] | 253.4031 | 19.1 | 53.19 |
| COc1ccc2c(c1)[C@]1(C[C@H]1c1ccc3c(Nc4cn(CCO)nc4OC)n[nH]c3c1)C(=O)N2 [Example 50, (1R,2S)-2-(3-{[1-(2-hydroxyethyl)-3-methoxy-1H-pyrazol-4-yl]amino}-1H-indazol-6-yl)-S′-methoxyspiro[cyclopropane-1,3′-indol]-2′(1′H)-one] | 361.809 | 61.7 | 27.4923 |
| COc1ccc2c(c1)[C@]1(C[C@H]1c1ccc3c(Nc4ncnc(N5CCS(=O)(=O)CC5)c4Cl)n[nH]c3c1)C(=O)N2 [Example 53] | 4028.777 | 1.25 | 251.7986 |
| COc1ccc2c(c1)[C@]1(C[C@H]1c1ccc3c(Nc4ncc(CCO)nc4OC)n[nH]c3c1)C(=O)N2 [Example 55, (lR,2S)-2-(3-{[5-(2-hydroxyethyl)-3-methoxypyrazin-2-yl]amino}-1H-indazol-6-yl)-5′-methozyspiro[cyclopropano-1,3′-indol]-2′(1′H)-one] | 3251.804 | 1.25 | 17.9 |
| COc1ccc2c(c1)[C@]1(C[C@H]1c1ccc3c(Nc4cc(N5CCS(=O)(=O)CC5)nc(C5CC5)n4)n[nH]c3c1)C(=O)N2 [Example 59, (1R,2S)-2-(3-((2-cyclopropyl-6-(1,1-dioxidothiomorpholino)pyrimidin-4-yl)amino)-1H-indazol-6-yl)-5′-methoxyspiro[cyclopropane-1,3′-indolin]-2′-one] | 108.4696 | 8.44 | 39.23 |
| COc1ccc2c(c1)[C@]1(C[C@H]1c1ccc3c(Nc4cc(N5CCS(=O)(=O)CC5)nc(C)n4)n[nH]c3c1)C(=O)N2 [Example 60, (1R,2S)-2-(3-((6-(1,1-dioxidothiomorpholino)-2-methylpyrimidin-4-yl)amino)-1H-indazol-6-yl)-5′-methoxyspiro[cyclopropane-1,3′-indolin]-2′-one] | 69.69 | 7.36 | 7.855 |
| COc1ccc2c(c1)[C@]1(C[C@H]1c1ccc3c(Nc4cn(C)nc4C)n[nH]c3c1)C(=O)N2 [Example 63, (1R,2S)-2-{3-[(1,3-dimethyl-1H-pyrazol-4-yl)amino]-1H-indazol-6-yl}-5′-methoxyspiro[cyclopropane-1,3′-indol]-2′(1′H)-one] | 56.84 | 72.2 | 16.69 |
| COc1ccc2c(c1)[C@]1(C[C@H]1c1ccc3c(Nc4cn(C)nc4C(F)(F)F)n[nH]c3c1)C(=O)N2 [Example 64, (1R,2S)-5′-methoxy-2-(3-{[1-methyl-3-(trifluoromethyl)-1H-pyrazol-4-yl]amino)-1H-indazol-6-yl)spiro[cyclopropane-1,3′-indol]-2′(1′H)-one] | 210.2116 | 87 | 98.84 |
| COc1ccc2c(c1)[C@]1(C[C@H]1c1ccc3c(Nc4cnn(C)c4)n[nH]c3c1)C(=O)N2 [Example 65] | 82.48 | 44.2 | 5.356 |
| COc1ccc2c(c1)[C@]1(C[C@H]1c1ccc3c(Nc4cn(C)nc4C#N)n[nH]c3c1)C(=O)N2 [Example 66, 4-({6-[(1R,2S)-5′-methoxy-2′-oxo-1′,2′-dihydrospiro[cyclopropane-1,3′-indol]-2-yl]-1H-indazol-3-yl}amino)-1-methyl-1H-pyrazole-3-carbonitrile] | 21.37 | 2340 | 7.607 |
| COc1ccc2c(c1)[C@]1(C[C@H]1c1ccc3c(Nc4cc(C)nn4C)n[nH]c3c1)C(=O)N2 [Example 74] | 293.0556 | 3.31 | 37.14 |
| COc1ccc2c(c1)[C@]1(C[C@H]1c1ccc3c(Nc4c(OC)cnn4C)n[nH]c3c1)C(=O)N2 [Example 75, (1R,2S)-5′-methoxy-2-{3-[(4-methoxy-1-methyl-1H-pyrazol-5-yl)amino]-1H-indazol-6-yl}spiro[cyclopropane-1,3′-indol]-2′(1′H)-one] | 173.4097 | 157 | 23.28 |
| COc1ccc2c(c1)[C@]1(C[C@H]1c1ccc3c(Nc4nn(C)cc4OC)n[nH]c3c1)C(=O)N2 [Example 79, (1R,2S)-5′-methoxy-2-{3-[(4-methoxy-1-methyl-1H-pyrazol-3-yl)amino]-1H-indazol-6-yl}spiro[cyclopropane-1,3′-indol]-2′(rH)-one] | 210.5378 | 91.9 | 6.986 |
| COc1ccc2c(c1)[C@]1(C[C@H]1c1ccc3c(Nc4nc(C)cnc4C)n[nH]c3c1)C(=O)N2.O=C(O)C(F)(F)F [Example 82, (1R,2S)-2-{3-[(3,6-dimethylpyrazin-2-yl)amino]-1H-indazol-6-yl}-5′-methoxyspiro[cyclopropane-1,3′-indol]-2′(1′H)-one] | 187.8524 | 6.21 | 38.55 |
| COc1ccc2c(c1)[C@]1(C[C@H]1c1ccc3c(Nc4nnccc4OC)n[nH]c3c1)C(=O)N2 [Example 90, (1R,2S)-5′-methoxy-2-{3-[(4-methozypyridazin-3-yl)amino]-1H-indazol-6-yl}spiro[cyclopropane-1,3′-indol]-2′(1′H)-one] | 1505.334 | 17.8 | 44.33 |
| CCn1nc(C2CC2)cc1Nc1n[nH]c2cc([C@@H]3C[C@@]34C(=O)Nc3ccc(OC)cc34)ccc12 [Example 92, (1R,2S)-2-{3-[(3-cyclopropyl-1-ethyl-1H-pyrazol-5-yl)amino]-1H-indazol-6-yl}-5′-methoxyspiro[cyclopropane-1,3′-indol]-2′(1′H)-one] | 132.8355 | 8.84 | 76.36 |
| COc1ccc2c(c1)[C@]1(C[C@H]1c1ccc3c(Nc4nc(CC(C)(C)O)nc(N5CCOCC5)c4OC)n[nH]c3c1)C(=O)N2 [Example 93, (1R,2S)-2-(3-{[2-(2-hydroxy-2-methylpropyl)-5-methoxy-6-(morpholin-4-yl)pyrimidin-4-yl]amino}-1H-indazol-6-yl)-5′-methoxyspiro[cyclopropane-1,3′-indol]-2′(1′H)-one] | 1733.361 | 24.3 | 1055.053 |
| COc1ccc2c(c1)[C@]1(C[C@H]1c1ccc3c(Nc4cc(N5CCOCC5)nc(C(C)C)n4)n[nH]c3c1)C(=O)N2 [Example 102, (1R,2S)-5′-methoxy-2-(3-{[6-(morpholin-4-yl)-2-(propan-2-yl)pyrimidin-4-yl]amino}-1H-indazol-6-yl)spiro[cyclopropane-l,3′-indol]-2′(1′H)-one] | 114.7355 | 6.16 | 74.7 |

— US20230365537A1, “POLO LIKE KINASE 4 INHIBITORS” (ORIC Pharmaceuticals, Inc., priority 2021, published 2023)
